The text below walks through data of paper PMC4772116 (Scientific Reports, 2016).

The term IC50 denotes the concentration that gives 50% inhibition. As usually defined, the Ki is a measure of affinity in units of concentration, obtained from inhibition or displacement.

One assay has as its target Ac-AChBP (Aplysia californica, UniProt Q8WSF8). Briefly: biochemical. In kind it is binding.
The next assay addresses human α3β2 nAChR (Homo sapiens, UniProt P17787+P32297). Briefly: cell-based. In kind it is cell-based.
Another assay deals with Ls-AChBP (Lymnaea stagnalis, UniProt P58154). Put plainly: biochemical. Type of assay: binding.
Chain of Ls-AChBP (P58154 20-229 limits assumed): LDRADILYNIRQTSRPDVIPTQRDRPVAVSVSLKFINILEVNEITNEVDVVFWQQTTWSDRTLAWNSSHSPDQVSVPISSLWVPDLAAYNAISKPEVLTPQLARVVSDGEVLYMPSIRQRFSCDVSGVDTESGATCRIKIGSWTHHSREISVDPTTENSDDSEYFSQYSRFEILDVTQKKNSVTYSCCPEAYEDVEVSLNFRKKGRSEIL

SMILES strings stand for the structures.

Chain of Ac-AChBP (Q8WSF8 20-236 limits assumed): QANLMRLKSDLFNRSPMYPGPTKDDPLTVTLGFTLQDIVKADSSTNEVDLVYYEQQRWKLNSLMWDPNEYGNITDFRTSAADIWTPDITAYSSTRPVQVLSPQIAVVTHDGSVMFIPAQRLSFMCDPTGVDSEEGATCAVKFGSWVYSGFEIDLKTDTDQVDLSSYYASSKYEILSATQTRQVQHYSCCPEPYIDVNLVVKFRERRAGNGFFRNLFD
Chain of human α3β2 nAChR (P32297 32-505 limits assumed): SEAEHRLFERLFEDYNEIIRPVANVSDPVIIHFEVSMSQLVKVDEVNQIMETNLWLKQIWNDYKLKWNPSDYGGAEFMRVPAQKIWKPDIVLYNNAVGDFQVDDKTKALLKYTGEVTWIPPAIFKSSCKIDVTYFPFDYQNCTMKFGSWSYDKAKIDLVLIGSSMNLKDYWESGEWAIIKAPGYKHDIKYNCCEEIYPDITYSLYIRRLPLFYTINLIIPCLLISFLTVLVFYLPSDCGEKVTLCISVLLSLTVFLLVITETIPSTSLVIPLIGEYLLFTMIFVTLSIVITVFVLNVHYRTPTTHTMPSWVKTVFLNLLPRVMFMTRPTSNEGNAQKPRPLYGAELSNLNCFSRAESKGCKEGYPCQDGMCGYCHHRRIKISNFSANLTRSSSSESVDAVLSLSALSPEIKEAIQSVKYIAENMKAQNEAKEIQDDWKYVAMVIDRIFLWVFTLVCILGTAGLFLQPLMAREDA
Chain of human α3β2 nAChR (P17787 26-502 limits assumed): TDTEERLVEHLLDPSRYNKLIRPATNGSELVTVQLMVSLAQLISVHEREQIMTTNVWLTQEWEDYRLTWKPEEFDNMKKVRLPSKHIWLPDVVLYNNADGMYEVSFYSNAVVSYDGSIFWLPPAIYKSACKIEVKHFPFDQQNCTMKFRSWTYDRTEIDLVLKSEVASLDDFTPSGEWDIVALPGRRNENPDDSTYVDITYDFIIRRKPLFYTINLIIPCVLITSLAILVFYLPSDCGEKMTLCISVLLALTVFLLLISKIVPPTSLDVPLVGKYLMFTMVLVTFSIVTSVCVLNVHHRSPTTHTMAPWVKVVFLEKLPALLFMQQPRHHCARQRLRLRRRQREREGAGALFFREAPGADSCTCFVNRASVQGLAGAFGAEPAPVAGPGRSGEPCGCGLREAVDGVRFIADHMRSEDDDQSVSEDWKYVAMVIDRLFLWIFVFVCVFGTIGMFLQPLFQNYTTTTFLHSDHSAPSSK

Turning to `CC[C@H](C)[C@@H]1NC(=O)[C@H](Cc2cnc[nH]2)NC(=O)[C@H](CCC(N)=O)NC(=O)[C@H](CC(N)=O)NC(=O)[C@H](CC(N)=O)NC(=O)CNC(=O)[C@H](C)NC(=O)[C@@H]2CSSC[C@H](NC(=O)CN)C(=O)N[C@@H](CSSC[C@@H](C(N)=O)NC1=O)C(=O)N[C@@H](CO)C(=O)N[C@@H](Cc1cnc[nH]1)C(=O)N1CCC[C@H]1C(=O)N[C@@H](C)C(=O)N2` [GIC, α-conotoxin GIC], the IC50 turned out to be 29 ± 2 nM on Ac-AChBP and 1.13 nM at human α3β2 nAChR. The molecule further yielded a Ki on Ls-AChBP of 220 ± 10 nM.
